Experimental data from US20120270237A9, “METHODS FOR THE IDENTIFICATION OF KINASE INTERACTING MOLECULES AND FOR THE PURIFICATION OF KINASE PROTEINS” (Cellzone AG, priority 2009, published 2012).

Columns and labels:
Assay in all cases: Kinobeads competition binding, HeLa Placenta lysate mix
Parameters in all cases: capturing and identification of kinases from mixed HeLa placenta lysates; endogenous in cells; host or cells: mixed lysate of HeLa cells and placenta tissue
Details in all cases: 10 μM free compound
[1] = target: AurB (Homo sapiens, UniProt Q96GD4)
Chain of AurB (Q96GD4 whole entry): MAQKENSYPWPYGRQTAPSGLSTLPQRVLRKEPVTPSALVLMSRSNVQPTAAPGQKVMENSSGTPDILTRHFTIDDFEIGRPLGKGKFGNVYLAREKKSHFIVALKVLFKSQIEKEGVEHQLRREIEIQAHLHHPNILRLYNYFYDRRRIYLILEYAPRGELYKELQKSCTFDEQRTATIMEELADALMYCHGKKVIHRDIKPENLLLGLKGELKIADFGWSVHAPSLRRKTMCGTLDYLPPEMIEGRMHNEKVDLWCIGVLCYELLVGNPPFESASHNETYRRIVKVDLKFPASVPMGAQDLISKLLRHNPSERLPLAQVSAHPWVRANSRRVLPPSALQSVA
Procedure: (§1) To one aliquot of cell lysate 10 μM of the free compound (FIG. 3, CZC31326) was added and allowed to bind to proteins in the lysate. Then the affinity matrix with the immobilized compound was added to capture proteins that were not interacting with the previously added free compound. Beads were separated from the lysate and bead bound proteins were eluted in SDS sample buffer and subsequently separated by SDS-Polyacrylamide gel electrophoresis (FIG. 10). Suitable gel bands were cut out and subjected to in-gel proteolytic digestion with trypsin. The second lysate aliquot was processed identically, however no free compound was added (DMSO solvent control). Peptides originating from samples 1 and 2 were labeled with iTRAQ reagents (iTRAQ 114 and iTRAQ 117) and the combined samples were analyzed with a nano-flow liquid chromatography system coupled online to a tandem mass spectrometer (LC-MS/MS) experiment followed by iTRAQ reporter ion quantification in the MS/MS spectra as described in Example 2.

[2] = target: MARK3 (Homo sapiens, UniProt P27448)
Chain of MARK3 (P27448 whole entry): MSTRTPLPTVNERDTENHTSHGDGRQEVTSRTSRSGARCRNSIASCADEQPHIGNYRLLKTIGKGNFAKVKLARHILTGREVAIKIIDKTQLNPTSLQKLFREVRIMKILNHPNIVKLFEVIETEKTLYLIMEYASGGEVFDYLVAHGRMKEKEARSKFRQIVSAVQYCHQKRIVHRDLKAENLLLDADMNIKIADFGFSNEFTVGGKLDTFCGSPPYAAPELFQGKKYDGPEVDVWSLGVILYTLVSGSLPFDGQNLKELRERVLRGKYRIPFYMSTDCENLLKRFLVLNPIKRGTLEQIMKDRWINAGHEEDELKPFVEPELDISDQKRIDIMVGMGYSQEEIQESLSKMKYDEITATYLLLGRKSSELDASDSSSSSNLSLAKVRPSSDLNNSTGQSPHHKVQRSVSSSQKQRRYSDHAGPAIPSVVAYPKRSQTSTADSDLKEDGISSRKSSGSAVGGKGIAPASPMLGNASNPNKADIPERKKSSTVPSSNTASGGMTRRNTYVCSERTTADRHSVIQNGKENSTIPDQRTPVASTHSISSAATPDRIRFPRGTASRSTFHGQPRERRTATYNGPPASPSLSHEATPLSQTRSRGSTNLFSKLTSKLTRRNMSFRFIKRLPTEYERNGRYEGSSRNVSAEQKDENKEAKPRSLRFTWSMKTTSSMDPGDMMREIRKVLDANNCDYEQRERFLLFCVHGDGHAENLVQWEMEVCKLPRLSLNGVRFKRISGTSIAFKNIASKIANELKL
Procedure: as §1

[3] = target: CaMK2d (Homo sapiens, UniProt Q13557)
Chain of CaMK2d (Q13557 whole entry): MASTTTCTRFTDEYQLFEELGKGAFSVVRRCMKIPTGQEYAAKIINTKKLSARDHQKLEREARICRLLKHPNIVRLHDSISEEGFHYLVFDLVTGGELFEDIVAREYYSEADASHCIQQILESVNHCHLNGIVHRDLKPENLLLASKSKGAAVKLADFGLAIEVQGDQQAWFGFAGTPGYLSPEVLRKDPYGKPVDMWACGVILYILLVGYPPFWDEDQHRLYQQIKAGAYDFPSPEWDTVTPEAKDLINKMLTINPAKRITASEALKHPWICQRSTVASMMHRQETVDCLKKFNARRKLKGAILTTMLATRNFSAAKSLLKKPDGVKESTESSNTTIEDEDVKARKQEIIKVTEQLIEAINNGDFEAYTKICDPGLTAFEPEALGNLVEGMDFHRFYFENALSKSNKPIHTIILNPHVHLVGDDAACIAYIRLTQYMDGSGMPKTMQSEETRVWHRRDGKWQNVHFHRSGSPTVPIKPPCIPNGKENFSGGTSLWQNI
Procedure: as §1

[4] = target: T1, GAK (Homo sapiens, UniProt O14976)
T1 sequence (O14976 1-1311): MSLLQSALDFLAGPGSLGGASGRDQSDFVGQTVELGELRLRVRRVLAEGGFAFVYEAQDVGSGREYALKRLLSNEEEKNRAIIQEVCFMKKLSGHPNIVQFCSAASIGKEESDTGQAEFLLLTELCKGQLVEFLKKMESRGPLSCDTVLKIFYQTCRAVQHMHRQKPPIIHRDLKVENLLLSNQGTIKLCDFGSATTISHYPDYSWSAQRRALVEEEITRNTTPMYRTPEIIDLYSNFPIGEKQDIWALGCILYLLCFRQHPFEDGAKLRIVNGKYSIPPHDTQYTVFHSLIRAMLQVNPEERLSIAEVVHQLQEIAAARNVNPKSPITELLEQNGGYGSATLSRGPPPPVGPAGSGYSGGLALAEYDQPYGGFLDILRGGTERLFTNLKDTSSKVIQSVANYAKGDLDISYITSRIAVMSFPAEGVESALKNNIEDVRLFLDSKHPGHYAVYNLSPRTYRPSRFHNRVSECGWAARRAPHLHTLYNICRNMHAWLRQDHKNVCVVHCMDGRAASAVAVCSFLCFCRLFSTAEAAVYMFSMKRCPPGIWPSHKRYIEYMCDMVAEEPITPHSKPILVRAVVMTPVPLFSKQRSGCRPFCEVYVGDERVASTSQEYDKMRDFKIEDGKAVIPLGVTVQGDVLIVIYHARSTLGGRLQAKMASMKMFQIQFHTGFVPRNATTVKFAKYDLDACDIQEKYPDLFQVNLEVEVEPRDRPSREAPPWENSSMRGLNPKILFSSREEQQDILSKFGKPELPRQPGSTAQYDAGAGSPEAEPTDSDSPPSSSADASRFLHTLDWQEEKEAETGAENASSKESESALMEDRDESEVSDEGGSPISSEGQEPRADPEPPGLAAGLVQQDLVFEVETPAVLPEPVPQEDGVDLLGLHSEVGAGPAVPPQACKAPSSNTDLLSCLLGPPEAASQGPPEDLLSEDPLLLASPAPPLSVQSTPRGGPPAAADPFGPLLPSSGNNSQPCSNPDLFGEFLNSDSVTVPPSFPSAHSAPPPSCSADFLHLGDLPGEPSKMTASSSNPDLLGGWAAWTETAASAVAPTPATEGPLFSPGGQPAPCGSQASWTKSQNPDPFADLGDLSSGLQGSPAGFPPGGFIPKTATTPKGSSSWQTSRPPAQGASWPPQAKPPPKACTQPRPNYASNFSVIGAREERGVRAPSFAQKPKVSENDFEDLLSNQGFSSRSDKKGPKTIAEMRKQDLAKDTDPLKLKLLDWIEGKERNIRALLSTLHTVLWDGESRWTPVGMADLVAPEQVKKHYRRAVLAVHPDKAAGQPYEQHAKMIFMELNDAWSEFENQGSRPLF
Procedure: as §1

[5] = target: FES (Homo sapiens, UniProt P07332)
Chain of FES (P07332 whole entry): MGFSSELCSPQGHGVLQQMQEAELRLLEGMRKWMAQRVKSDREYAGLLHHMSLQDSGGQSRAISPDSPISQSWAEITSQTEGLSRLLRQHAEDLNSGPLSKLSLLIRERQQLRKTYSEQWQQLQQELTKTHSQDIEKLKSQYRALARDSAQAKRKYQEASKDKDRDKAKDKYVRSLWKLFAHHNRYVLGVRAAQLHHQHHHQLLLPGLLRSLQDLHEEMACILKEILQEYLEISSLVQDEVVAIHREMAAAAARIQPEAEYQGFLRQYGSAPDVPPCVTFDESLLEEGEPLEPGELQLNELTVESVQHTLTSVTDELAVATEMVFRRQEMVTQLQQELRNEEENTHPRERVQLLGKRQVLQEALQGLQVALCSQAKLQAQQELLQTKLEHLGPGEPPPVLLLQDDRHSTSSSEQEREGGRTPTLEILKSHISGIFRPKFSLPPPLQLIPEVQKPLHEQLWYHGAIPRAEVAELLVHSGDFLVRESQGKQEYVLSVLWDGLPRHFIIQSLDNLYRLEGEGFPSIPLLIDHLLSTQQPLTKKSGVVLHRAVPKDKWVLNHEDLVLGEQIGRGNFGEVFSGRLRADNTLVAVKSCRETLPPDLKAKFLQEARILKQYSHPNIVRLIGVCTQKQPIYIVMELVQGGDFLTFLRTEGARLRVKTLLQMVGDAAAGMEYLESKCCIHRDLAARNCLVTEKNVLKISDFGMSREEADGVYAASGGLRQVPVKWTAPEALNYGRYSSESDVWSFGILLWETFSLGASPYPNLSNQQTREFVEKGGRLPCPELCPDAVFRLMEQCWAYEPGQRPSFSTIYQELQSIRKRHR
Procedure: as §1

- inhibition at 10 µM [1]: 90.8%
- inhibition at 10 µM [2]: 93.1%
- inhibition at 10 µM [3]: 72.1%
- inhibition at 10 µM [4]: 93.6%
- inhibition at 10 µM [5]: 95.1%
SMILES: CS(=O)(=O)Nc1ccccc1Nc1nc(Nc2cccc(OCCN)c2)ncc1Cl [CZC31326, N-(2-(2-(3-(2-aminoethoxy)phenylamino)-5-chloropyrimidin-4-ylamino)phenyl)methanesulfonamide]
